The target of the assay is human NLRP3 (Homo sapiens (Human), UniProt Q96P20). Put plainly: Scintillation Proximity (SPA) NLRP3 Assay: displacement of 3H-MCC950. It is filed as binding. Conditions: displacement of 3H-MCC950; read-out: SPA IC50. (Scintillation proximity formats need no separation of bound from free tracer.)
Sequence of human NLRP3 (Q96P20 whole entry): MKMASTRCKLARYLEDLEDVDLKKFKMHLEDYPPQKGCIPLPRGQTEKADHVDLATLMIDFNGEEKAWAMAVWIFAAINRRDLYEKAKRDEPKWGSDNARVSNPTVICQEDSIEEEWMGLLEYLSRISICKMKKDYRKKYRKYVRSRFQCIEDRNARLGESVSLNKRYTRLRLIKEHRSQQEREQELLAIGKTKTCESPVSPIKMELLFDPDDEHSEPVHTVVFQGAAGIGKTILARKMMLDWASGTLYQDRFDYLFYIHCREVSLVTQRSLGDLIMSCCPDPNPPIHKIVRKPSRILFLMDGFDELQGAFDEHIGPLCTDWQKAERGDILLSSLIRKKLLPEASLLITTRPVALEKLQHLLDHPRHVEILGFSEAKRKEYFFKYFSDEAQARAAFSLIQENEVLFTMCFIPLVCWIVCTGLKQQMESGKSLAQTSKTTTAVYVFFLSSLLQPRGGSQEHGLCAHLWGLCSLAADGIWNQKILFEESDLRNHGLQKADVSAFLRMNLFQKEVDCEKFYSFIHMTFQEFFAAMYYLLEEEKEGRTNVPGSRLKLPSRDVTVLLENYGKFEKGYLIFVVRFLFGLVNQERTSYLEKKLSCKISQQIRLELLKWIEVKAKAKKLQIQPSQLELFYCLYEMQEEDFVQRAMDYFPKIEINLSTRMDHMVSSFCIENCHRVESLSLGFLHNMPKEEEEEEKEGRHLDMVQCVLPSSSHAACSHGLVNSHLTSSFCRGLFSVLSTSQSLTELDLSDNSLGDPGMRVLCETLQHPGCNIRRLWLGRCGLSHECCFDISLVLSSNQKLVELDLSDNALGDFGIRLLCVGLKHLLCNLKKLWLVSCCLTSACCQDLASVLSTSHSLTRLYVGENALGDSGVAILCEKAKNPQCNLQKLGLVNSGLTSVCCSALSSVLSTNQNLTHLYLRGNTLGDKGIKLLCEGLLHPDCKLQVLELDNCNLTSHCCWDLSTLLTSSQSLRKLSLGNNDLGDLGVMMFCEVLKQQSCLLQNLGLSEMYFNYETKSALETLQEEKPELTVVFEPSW
As to `C[C@H]1CCN(c2nnn[nH]2)C[C@@H](NC(=O)C2(c3ccc(OC(F)(F)F)c(F)c3O)CC2)C1` (single isomer, unassigned) [28D*, 1-(3-fluoro-2-hydroxy-4-(trifluoromethoxy)phenyl)-N-(5-methyl-1-(1H-tetrazol-5-yl)azepan-3-yl)cyclopropane-1-carboxamide], the IC50 (as a rule, the concentration that inhibits the measured activity by half) fell in the range of 1 to 10 µM.
For `C[C@H]1CCN(c2nnn[nH]2)C[C@@H](NC(=O)C2(c3cc(F)c(Cl)cc3O)CC2)C1` (single isomer, unassigned) [29D*, 1-(4-chloro-5-fluoro-2-hydroxyphenyl)-N-(5-methyl-1-(1H-tetrazol-5-yl)azepan-3-yl)cyclopropane-1-carboxamide] the value was 10 to 50 µM.
Take `C[C@H]1CCN(c2nnn[nH]2)C[C@H](NC(=O)C2(c3ccc(C(F)F)cc3O)CC2)C1` (single isomer, unassigned) [30C*, 1-(4-(difluoromethyl)-2-hydroxyphenyl)-N-(5-methyl-1-(1H-tetrazol-5-yl)azepan-3-yl)cyclopropane-1-carboxamide]: the IC50 was more than 100 µM.
For `C[C@H]1CCN(c2nnn[nH]2)C[C@@H](NC(=O)C2(c3ccc(C(F)F)cc3O)CC2)C1` (single isomer, unassigned) [30D*, 1-(4-(difluoromethyl)-2-hydroxyphenyl)-N-(5-methyl-1-(1H-tetrazol-5-yl)azepan-3-yl)cyclopropane-1-carboxamide] the value was 1 to 10 µM.
For `C[C@H]1CCN(c2nnn[nH]2)C[C@H](NC(=O)C2(c3ccc(C(F)(F)F)c(F)c3O)CC2)C1` (single isomer, unassigned) [31C*, 1-(3-fluoro-2-hydroxy-4-(trifluoromethyl)phenyl)-N-(5-methyl-1-(1H-tetrazol-5-yl)azepan-3-yl)cyclopropane-1-carboxamide] the value was 10 to 50 µM; for `C[C@H]1CCN(c2nnn[nH]2)C[C@@H](NC(=O)C2(c3ccc(C(F)(F)F)c(F)c3O)CC2)C1` (single isomer, unassigned) [31D*, 1-(3-fluoro-2-hydroxy-4-(trifluoromethyl)phenyl)-N-(5-methyl-1-(1H-tetrazol-5-yl)azepan-3-yl)cyclopropane-1-carboxamide], 1 to 10 µM; for `C[C@@H]1CCN(c2nnn[nH]2)C[C@@H](NC(=O)C2(c3ccc(C4CC4)c(F)c3O)CC2)C1` (single isomer, unassigned) [32B*, 1-(4-cyclopropyl-3-fluoro-2-hydroxyphenyl)-N-(5-methyl-1-(1H-tetrazol-5-yl)azepan-3-yl)cyclopropane-1-carboxamide], 1 to 10 µM.
For `C[C@H]1CCN(c2nnn[nH]2)C[C@H](NC(=O)C2(c3ccc(C4CC4)c(F)c3O)CC2)C1` (single isomer, unassigned) [32C*, 1-(4-cyclopropyl-3-fluoro-2-hydroxyphenyl)-N-(5-methyl-1-(1H-tetrazol-5-yl)azepan-3-yl)cyclopropane-1-carboxamide] the value was 50 to 100 µM; for `C[C@H]1CCN(c2nnn[nH]2)C[C@@H](NC(=O)C2(c3ccc(C4CC4)c(F)c3O)CC2)C1` (single isomer, unassigned) [32D*, 1-(4-cyclopropyl-3-fluoro-2-hydroxyphenyl)-N-(5-methyl-1-(1H-tetrazol-5-yl)azepan-3-yl)cyclopropane-1-carboxamide], 10 to 50 µM.
For the compound `O=C(N[C@H]1CC[C@@H]2CC[C@H]1N2c1nnn[nH]1)C1(c2ccc(C(F)(F)F)cc2O)CC1` (single isomer, unassigned) [34B*], the IC50 is 1 to 10 µM.
Take `C[C@@H]1C[C@H](NC(=O)C2(c3ccc(OC(F)F)cc3)CC2)[C@H]2CC[C@@H]1N2c1nnn[nH]1` (single isomer, unassigned) [35B*]: the IC50 is 50 to 100 µM.
In the case of `C[C@H]1C[C@@H](NC(=O)C2(c3ccc(OC(F)F)cc3)CC2)[C@@H]2CC[C@H]1N2c1nnn[nH]1` (single isomer, unassigned) [35C*] it was more than 100 µM; in that of `C[C@H]1C[C@H](NC(=O)C2(c3ccc(OC(F)F)cc3)CC2)[C@@H]2CC[C@H]1N2c1nnn[nH]1` (single isomer, unassigned) [35D*], 10 to 50 µM; in that of `C[C@H]1C[C@H](NC(=O)C2(c3ccc(OC(F)F)cc3)CC2)[C@H]2CC[C@@H]1N2c1nnn[nH]1` (single isomer, unassigned) [35F*], 50 to 100 µM.
In the case of `C[C@@H]1C[C@@H](NC(=O)C2(c3ccc(OC(F)F)cc3)CC2)[C@@H]2CC[C@H]1N2c1nnn[nH]1` (single isomer, unassigned) [35G*] it was more than 100 µM.
In the case of `C[C@@H]1C[C@H](NC(=O)C2(c3ccc(OC(F)F)cc3)CC2)[C@@H]2CC[C@H]1N2c1nnn[nH]1` (single isomer, unassigned) [35H*] it was more than 100 µM; in that of `C[C@H]1CC[C@@H](NC(=O)C2(c3ccc(Cl)cc3)CC2)CN(c2nnn[nH]2)C1` (single isomer, unassigned) [36A*, 1-(4-chlorophenyl)-N-(6-methyl-1-(1H-tetrazol-5-yl)azepan-3-yl)cyclopropane-1-carboxamide], less than 1 µM.
Turning to `C[C@H]1CC[C@H](NC(=O)C2(c3ccc(Cl)cc3)CC2)CN(c2nnn[nH]2)C1` (single isomer, unassigned) [36B*, 1-(4-chlorophenyl)-N-(6-methyl-1-(1H-tetrazol-5-yl)azepan-3-yl)cyclopropane-1-carboxamide], the IC50 was in the range of 1 to 10 µM.
For `C[C@@H]1CC[C@@H](NC(=O)C2(c3ccc(Cl)cc3)CC2)CN(c2nnn[nH]2)C1` (single isomer, unassigned) [36C*, 1-(4-chlorophenyl)-N-(6-methyl-1-(1H-tetrazol-5-yl)azepan-3-yl)cyclopropane-1-carboxamide] the value was more than 100 µM; for `C[C@@H]1CC[C@H](NC(=O)C2(c3ccc(Cl)cc3)CC2)CN(c2nnn[nH]2)C1` (single isomer, unassigned) [36D*, 1-(4-chlorophenyl)-N-(6-methyl-1-(1H-tetrazol-5-yl)azepan-3-yl)cyclopropane-1-carboxamide], more than 100 µM.
`C[C@@H]1C[C@H](NC(=O)C2(c3ccc(C4CC4(F)F)cc3)CC2)[C@H]2CC[C@@H]1N2c1nnn[nH]1` (single isomer, unassigned) [37B*]: the IC50 lay within 10 to 50 µM.
Consider `C[C@H]1C[C@@H](NC(=O)C2(c3ccc(C4CC4(F)F)cc3)CC2)[C@@H]2CC[C@H]1N2c1nnn[nH]1` (single isomer, unassigned) [37C*], for which the IC50 is more than 100 µM.
With `C[C@H]1C[C@H](NC(=O)C2(c3ccc(C4CC4(F)F)cc3)CC2)[C@@H]2CC[C@H]1N2c1nnn[nH]1` (single isomer, unassigned) [37D*], the IC50 is more than 100 µM.
For `CC1(C)C[C@H](NC(=O)C2(c3ccc(Cl)cc3O)CC2)CN(c2nnn[nH]2)C1` (single isomer, unassigned) [42B*] the value was 10 to 50 µM; for `O=C(N[C@@H]1CN(c2nnn[nH]2)CCC(F)(F)C1)C1(c2ccc(Cl)cc2)CC1` (single isomer, unassigned) [53B*], 50 to 100 µM.
For `C[C@@H]1CCN(c2nnn[nH]2)C[C@@H](NC(=O)C2(c3ccc(C(F)(F)F)c(OC(F)F)c3)CC2)C1` (single isomer, unassigned) [54B*] the value was 10 to 50 µM; for `C[C@H]1CCN(c2nnn[nH]2)C[C@H](NC(=O)C2(c3ccc(C(F)(F)F)c(OC(F)F)c3)CC2)C1` (single isomer, unassigned) [54C*], more than 100 µM; for `C[C@H]1CCN(c2nnn[nH]2)C[C@@H](NC(=O)C2(c3ccc(C(F)(F)F)c(OC(F)F)c3)CC2)C1` (single isomer, unassigned) [54D*], 10 to 50 µM.
For `C[C@@H]1CCN(c2nnn[nH]2)C[C@@H](NC(=O)C2(c3ccc(Cl)cc3Cl)CC2)C1` (single isomer, unassigned) [55B*], the IC50 was 10 to 50 µM.
In the case of `C[C@H]1CCN(c2nnn[nH]2)C[C@H](NC(=O)C2(c3ccc(Cl)cc3Cl)CC2)C1` (single isomer, unassigned) [55C*] it was 50 to 100 µM; in that of `C[C@H]1CCN(c2nnn[nH]2)C[C@@H](NC(=O)C2(c3ccc(Cl)cc3Cl)CC2)C1` (single isomer, unassigned) [55D*], 50 to 100 µM.
In the case of `C[C@@H]1CCN(c2nnn[nH]2)C[C@@H](NC(=O)C2(c3ccc(Cl)cc3F)CC2)C1` (single isomer, unassigned) [56B*] it was 1 to 10 µM.
On to `C[C@H]1CCN(c2nnn[nH]2)C[C@H](NC(=O)C2(c3ccc(Cl)cc3F)CC2)C1` (single isomer, unassigned) [56C*], for which the 50% inhibitory concentration (IC50) fell in the range of 50 to 100 µM.
In the case of `C[C@H]1CCN(c2nnn[nH]2)C[C@@H](NC(=O)C2(c3ccc(Cl)cc3F)CC2)C1` (single isomer, unassigned) [56D*] it was 10 to 50 µM; in that of `C[C@@H]1CCN(c2nnn[nH]2)C[C@@H](NC(=O)C2(c3ccc(OC(F)(F)F)cc3)CC2)C1` (single isomer, unassigned) [57B*], 1 to 10 µM.
For `C[C@H]1CCN(c2nnn[nH]2)C[C@H](NC(=O)C2(c3ccc(OC(F)(F)F)cc3)CC2)C1` (single isomer, unassigned) [57C*] the value was more than 100 µM; for `C[C@H]1CCN(c2nnn[nH]2)C[C@@H](NC(=O)C2(c3ccc(OC(F)(F)F)cc3)CC2)C1` (single isomer, unassigned) [57D*], 10 to 50 µM.
For `C[C@H]1CCN(c2nnn[nH]2)C[C@H](NC(=O)C2(c3ccc(OC(F)F)cc3)CC2)C1` (single isomer, unassigned) [58C*] the value was more than 100 µM; for `C[C@H]1CCN(c2nnn[nH]2)C[C@@H](NC(=O)C2(c3ccc(OC(F)F)cc3)CC2)C1` (single isomer, unassigned) [58D*], 1 to 10 µM.
Consider `C[C@@H]1CCN(c2nnn[nH]2)C[C@@H](NC(=O)C2(c3ccc(Br)cc3)CC2)C1` (single isomer, unassigned) [59B*], for which the IC50 lay within 1 to 10 µM.
For `C[C@H]1CCN(c2nnn[nH]2)C[C@H](NC(=O)C2(c3ccc(Br)cc3)CC2)C1` (single isomer, unassigned) [59C*] the value was 50 to 100 µM; for `C[C@H]1CCN(c2nnn[nH]2)C[C@@H](NC(=O)C2(c3ccc(Br)cc3)CC2)C1` (single isomer, unassigned) [59D*], 1 to 10 µM.
In the case of `C[C@H]1CCN(c2nnn[nH]2)C[C@H](NC(=O)C2(c3ccc(Cl)cc3O)CC2)C1` (single isomer, unassigned) [60C*] it was 1 to 10 µM.

(Values after patent US20260007684A1, “AMIDE DERIVATIVES FOR INHIBITING NLRP3 AND USES THEREOF” (Ventus Therapeutics U.S., Inc., priority 2023, published 2026).)
